In PubChem BioAssay (NCI):
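GI50 is the concentration that inhibits growth by half. TGI: concentration producing complete growth inhibition.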

Columns and labels:
Experiment in all cases: inhibition of tumour cell growth, NCI panel, 384-well format
UACC-62 melanoma = test system: UACC-62 melanoma
SR leukemia = test system: SR leukemia
SW-620 colon = test system: SW-620 colon
UACC-257 melanoma = test system: UACC-257 melanoma
LOX IMVI melanoma = test system: LOX IMVI melanoma
A549 NSCLC = test system: A549 NSCLC
IGROV1 ovarian = test system: IGROV1 ovarian
EKVX NSCLC = test system: EKVX NSCLC
SF-295 CNS = test system: SF-295 CNS
RXF 393 renal = test system: RXF 393 renal
COLO 205 colon = test system: COLO 205 colon
NCI-H522 lung = test system: NCI-H522 lung
T-47D breast = test system: T-47D breast
CAKI-1 renal = test system: CAKI-1 renal
A498 renal = test system: A498 renal
PC-3 prostate = test system: PC-3 prostate
SNB-75 CNS = test system: SNB-75 CNS
NCI/ADR-RES ovarian = test system: NCI/ADR-RES ovarian
MALME-3M melanoma = test system: MALME-3M melanoma
MDA-MB-468 breast = test system: MDA-MB-468 breast
KM12 colon = test system: KM12 colon
HCC-2998 colon = test system: HCC-2998 colon
K-562 leukemia = test system: K-562 leukemia
MOLT-4 leukemia = test system: MOLT-4 leukemia
SK-OV-3 ovarian = test system: SK-OV-3 ovarian
HT29 colon = test system: HT29 colon
TK-10 renal = test system: TK-10 renal
SK-MEL-28 melanoma = test system: SK-MEL-28 melanoma
U251 glioblastoma = test system: U251 glioblastoma
RPMI-8226 leukemia = test system: RPMI-8226 leukemia
NCI-H226 lung = test system: NCI-H226 lung
NCI-H322M lung = test system: NCI-H322M lung
MDA-MB-231 breast = test system: MDA-MB-231 breast
SK-MEL-2 melanoma = test system: SK-MEL-2 melanoma
HOP-92 NSCLC = test system: HOP-92 NSCLC
CCRF-CEM leukemia = test system: CCRF-CEM leukemia
SF-268 CNS = test system: SF-268 CNS
OVCAR-5 ovarian = test system: OVCAR-5 ovarian
SNB-19 CNS = test system: SNB-19 CNS
786-0 renal = test system: 786-0 renal
NCI-H23 lung = test system: NCI-H23 lung
MDA-MB-435 melanoma = test system: MDA-MB-435 melanoma
HCT-15 colon = test system: HCT-15 colon
DU-145 prostate = test system: DU-145 prostate
HOP-62 NSCLC = test system: HOP-62 NSCLC
ACHN renal = test system: ACHN renal
HL-60(TB) leukemia = test system: HL-60(TB) leukemia
UO-31 renal = test system: UO-31 renal
SN12C renal = test system: SN12C renal
SK-MEL-5 melanoma = test system: SK-MEL-5 melanoma
SF-539 CNS = test system: SF-539 CNS
NCI-H460 NSCLC = test system: NCI-H460 NSCLC
OVCAR-4 ovarian = test system: OVCAR-4 ovarian
M14 melanoma = test system: M14 melanoma
OVCAR-3 ovarian = test system: OVCAR-3 ovarian
MCF7 breast = test system: MCF7 breast
HS 578T breast = test system: HS 578T breast
HCT-116 colon = test system: HCT-116 colon
BT-549 breast = test system: BT-549 breast

Cc1cc([N+](=O)[O-])ccc1NS(=O)(=O)c1cc(Cl)ccc1Cl
GI50 (UACC-62 melanoma): 13.3 µM | TGI (UACC-62 melanoma): 33.3 µM | GI50 (SR leukemia): 19.1 µM | TGI (SR leukemia): 33.3 µM | GI50 (SW-620 colon): 5.93 µM | TGI (SW-620 colon): 46 µM | GI50 (UACC-257 melanoma): 4.95 µM | TGI (UACC-257 melanoma): 19.2 µM | GI50 (LOX IMVI melanoma): 3.74 µM | TGI (LOX IMVI melanoma): 13.3 µM | GI50 (A549 NSCLC): 4.62 µM | TGI (A549 NSCLC): 24 µM | GI50 (IGROV1 ovarian): 18.9 µM | TGI (IGROV1 ovarian): > 100 µM | GI50 (EKVX NSCLC): 3.64 µM | TGI (EKVX NSCLC): 14.6 µM | GI50 (SF-295 CNS): 3.99 µM | TGI (SF-295 CNS): 22.1 µM | GI50 (RXF 393 renal): 4.56 µM | TGI (RXF 393 renal): 22.3 µM | GI50 (COLO 205 colon): 17.1 µM | TGI (COLO 205 colon): 78 µM | GI50 (NCI-H522 lung): 2.87 µM | TGI (NCI-H522 lung): 8.65 µM | GI50 (T-47D breast): 2.65 µM | TGI (T-47D breast): 6.31 µM | GI50 (CAKI-1 renal): 5.52 µM | TGI (CAKI-1 renal): 39 µM | GI50 (A498 renal): 4.63 µM | TGI (A498 renal): 22.6 µM | GI50 (PC-3 prostate): 3.59 µM | TGI (PC-3 prostate): 14.6 µM | GI50 (SNB-75 CNS): 9.67 µM | TGI (SNB-75 CNS): 35.4 µM | GI50 (NCI/ADR-RES ovarian): 3.26 µM | TGI (NCI/ADR-RES ovarian): 15.9 µM | GI50 (MALME-3M melanoma): 5.38 µM | TGI (MALME-3M melanoma): 24.4 µM | GI50 (MDA-MB-468 breast): 2.16 µM | TGI (MDA-MB-468 breast): 9.32 µM | GI50 (KM12 colon): 6.61 µM | TGI (KM12 colon): 43.9 µM | GI50 (HCC-2998 colon): 5.29 µM | TGI (HCC-2998 colon): 24.5 µM | GI50 (K-562 leukemia): 7.36 µM | TGI (K-562 leukemia): 55.7 µM | GI50 (MOLT-4 leukemia): 7.48 µM | TGI (MOLT-4 leukemia): 20.2 µM | GI50 (SK-OV-3 ovarian): 13.8 µM | TGI (SK-OV-3 ovarian): 49.8 µM | GI50 (HT29 colon): 4.53 µM | TGI (HT29 colon): > 100 µM | GI50 (TK-10 renal): 11.4 µM | TGI (TK-10 renal): > 100 µM | GI50 (SK-MEL-28 melanoma): 5.46 µM | TGI (SK-MEL-28 melanoma): 32.4 µM | GI50 (U251 glioblastoma): 2.91 µM | TGI (U251 glioblastoma): 10.5 µM | GI50 (RPMI-8226 leukemia): 2.09 µM | TGI (RPMI-8226 leukemia): 4.48 µM | GI50 (NCI-H226 lung): 6.27 µM | TGI (NCI-H226 lung): 20.2 µM | GI50 (NCI-H322M lung): 3.85 µM | TGI (NCI-H322M lung): 16.4 µM | GI50 (MDA-MB-231 breast): 5.07 µM | TGI (MDA-MB-231 breast): 30.8 µM | GI50 (SK-MEL-2 melanoma): 33.1 µM | TGI (SK-MEL-2 melanoma): 49.5 µM | GI50 (HOP-92 NSCLC): 3.63 µM | TGI (HOP-92 NSCLC): 16.4 µM | GI50 (CCRF-CEM leukemia): 5.19 µM | TGI (CCRF-CEM leukemia): 18.4 µM | GI50 (SF-268 CNS): 3.78 µM | TGI (SF-268 CNS): 27.5 µM | GI50 (OVCAR-5 ovarian): 12.9 µM | TGI (OVCAR-5 ovarian): 44.1 µM | GI50 (SNB-19 CNS): 5.5 µM | TGI (SNB-19 CNS): 75.6 µM | GI50 ([…]-0 renal): 7.49 µM | TGI (786-0 renal): 33.6 µM | GI50 (NCI-H23 lung): 2.98 µM | TGI (NCI-H23 lung): 13.1 µM | GI50 (MDA-MB-435 melanoma): 3.21 µM | TGI (MDA-MB-435 melanoma): 26.6 µM | GI50 (HCT-15 colon): 3.44 µM | TGI (HCT-15 colon): 14.9 µM | GI50 (DU-145 prostate): 10.1 µM | TGI (DU-145 prostate): > 100 µM | GI50 (HOP-62 NSCLC): 13.5 µM | TGI (HOP-62 NSCLC): 35.5 µM | GI50 (ACHN renal): 14.4 µM | TGI (ACHN renal): 67.9 µM | GI50 (HL-60(TB) leukemia): 2.74 µM | TGI (HL-60(TB) leukemia): 5.97 µM | GI50 (UO-31 renal): 12.4 µM | TGI (UO-31 renal): 43.9 µM | GI50 (SN12C renal): 5.83 µM | TGI (SN12C renal): 49.4 µM | GI50 (SK-MEL-5 melanoma): 2.45 µM | TGI (SK-MEL-5 melanoma): 7.27 µM | GI50 (SF-539 CNS): 5.29 µM | TGI (SF-539 CNS): 20.1 µM | GI50 (NCI-H460 NSCLC): 2.89 µM | TGI (NCI-H460 NSCLC): 11.6 µM | GI50 (OVCAR-4 ovarian): 6.02 µM | TGI (OVCAR-4 ovarian): > 100 µM | GI50 (M14 melanoma): 16.9 µM | TGI (M14 melanoma): 68.3 µM | GI50 (OVCAR-3 ovarian): 3.56 µM | TGI (OVCAR-3 ovarian): 15.4 µM | GI50 (MCF7 breast): 7.65 µM | TGI (MCF7 breast): 25.2 µM | GI50 (HS 578T breast): 3.02 µM | TGI (HS 578T breast): 10.6 µM | GI50 (HCT-116 colon): 4.45 µM | TGI (HCT-116 colon): 16 µM | GI50 (BT-549 breast): 3.08 µM | TGI (BT-549 breast): 8.84 µM
